Laboratory results as given in patent publication US7048939B2, “Methods for the inhibition of neointima formation” (The Board of Trustees of the Leland Stanford Junior …, priority 2001, dated 2006).

Key:
[1] = system: infra-renal abdominal aorta; test: Morphological analysis of intima/media ratios 28 days after in vivo stent implantation; design: species or system New Zealand White rabbits; settings: 28 days after stent implantation, stent-based local release from microspheres, 0.25% cholesterol diet
Protocol: Microsphere Preparation. Biodegradable poly(lactic-co-glycolic-acid)-polyethylene glycol (PLGA/PEG) microspheres were prepared as a modification of previously described techniques. […] Additionally, a pH buffer of 7.4 was incorporated to limit local pH changes in order to stabilize incorporated drugs and render the microspheres more biocompatible. During the microsphere manufacturing process, 2.0 mg of the angiogenesis inhibitor angiostatin (Calbiochem, La Jolla, Calif.) in […] phosphate buffered saline was added to the polymer solution. Control microspheres (blank microspheres) containing polymer and buffer without any drug were also prepared. Stents were prepared as above. In Vivo Stent Implantation. Age-matched adult male New Zealand White rabbits weighing 3.8–4.2 kg were used in accordance to NIH and institutional guidelines (n=6 animals per group). Under general anesthesia, an arteriotomy at the femoral artery was performed and a 5 Fr introducing sheath was placed. Under fluoroscopic guidance, aseptically prepared channeled stents filled with blank or angiostatin microspheres were deployed in the infra-renal abdominal aorta. Stents were post-dilated at 8 atm with a 5 mm angioplasty balloon (Jupiter, Cordis, Miami, Fla.) to a final lumen size of 125% above the baseline with care taken to ensure that […] were present within the stent segment. Pre- and post-deployment digital subtraction angiograms were recorded for the blank procedural control and angiostatin treatment groups. The rabbits were fed a 0.25% cholesterol diet after the intervention. Early 7 day follow up (n=3 per group) or late 28 day follow-up (n=3 per group) animals underwent total-body perfusion-fixation as previously described with immediate excision of the aortic segment containing stent. The 7 day aortic specimens were excised longitudinally and stents were removed. The resulting aortic segments were divided into two equal subsegments. One subsegment of each underwent fixation in 10% neutral buffered formalin and embedded in paraffin-for light microscopic and morphologic analysis. The remaining subsegment of each specimen was snap frozen for molecular assay. The 28 days aortic specimens were fixed in 10% neutral buffered formalin and were embedded in PolyBed (Polysciences, Warrington, Pa.) for light microscopic and morphologic analysis. Morphological Analysis of Intima/Media (I/M) Ratios. The seven day analysis consisted of thick (5 μm) cross sections of the aortic wall were obtained from the paraffin-embedded specimens (n=9 sections per group). An elastic von Gieson-Masson trichrome or Elastica van Gieson-Hematoxylin double stain was performed for light microscopic analysis. For the 28 day specimen analysis (n=3 animals per group), each plastic-embedded aorta with stents was cut into five pieces longitudinally equal lengths. These pieces were stained by modified Verhoff elastic staining. Five cross sectional images of the stained aorta were obtained (n=15 sections per group) from one side of plastic pieces. […] Using Image Pro Plus software (Media Cybernetics, Silver Spring, Md.), the cross-sectional area of the intima and the media were determined by blinded observers. The ratio of intima area to media area subsequently tabulated for each, with the results presented as Table 2. Mean, standard error, and significance were determined.

[2] = system: infra-renal abdominal aorta; test: Local plaque stability parameters: macrophage infiltrate and endothelial density (CD31); assay type: in vivo, New Zealand White rabbits; settings: 7 days after stent implantation
Protocol: In Vivo Stent Implantation. Age-matched adult male New Zealand White rabbits weighing 3.8–4.2 kg were used in accordance to NIH and institutional guidelines (n=6 animals per group). Under general anesthesia, an arteriotomy at the femoral artery was performed and a 5 Fr introducing sheath was placed. Under fluoroscopic guidance, aseptically prepared channeled stents filled with blank or angiostatin microspheres were deployed in the infra-renal abdominal aorta. Stents were post-dilated at 8 atm with a 5 mm angioplasty balloon (Jupiter, Cordis, Miami, Fla.) to a final lumen size of 125% above the baseline with care taken to ensure that […] were present within the stent segment. Pre- and post-deployment digital subtraction angiograms were recorded for the blank procedural control and angiostatin treatment groups. […]
Evaluation of Local Plaque Stability Parameters: Macrophage Infiltrate and Endothelial Density. Cross sections at the 7 day time point evaluated above were obtained (two per segment) from each vessel and incubated with a primary monoclonal antibody to rabbit macrophage (clone RAM-11, 1/800 dilution, DAKO, Carpinteria, Calif.). The number of positive cells per cross section was counted by a blinded observer. […] Mean and standard error were tabulated for each group with significance determined as before and p values as reported.

## CCNCCN(CC)N(O)N=O [NO, N-Ethyl-2-(1-ethyl-2-hydroxy-2-nitrosohydrazino) ethanamine, reference compound]
[1]
  Intima to media ratio (ratio of intimal area to medial area, mean ± SE): 1.338 ± 0.051

## CCC[C@H](N[C@@H](C)C(=O)N1[C@H](C(=O)O)C[C@@H]2CCCC[C@@H]21)C(=O)O [ATIIr, perindoprilate, reference compound]
[1]
  Intima to media ratio (ratio of intimal area to medial area, mean ± SE): 1.730 ± 0.090

## Angiostatin
[2]
  Number of plaque microvessels (CD31) per cross section (mean ± SE): 0.111 ± 0.111
[2]; RAM-11 positive cells per cross section
  Number of cross-sectional macrophages (mean ± SE): 34.889 ± 3.948 P = 0.0011
[1]
  Intima to media ratio (ratio of intimal area to medial area, mean ± SE): 1.610 ± 0.050

## CN1CCC[C@H]1c1cccnc1 [Nicotine, S-3-(1-methyl-2-pyrrolidinyl)pyridine, reference compound]
[1]
  Intima to media ratio (ratio of intimal area to medial area, mean ± SE): 1.377 ± 0.060

## AAT: elastase inhibitor alpha-1-antitrypsin (Calbiochem)
[1]
  Intima to media ratio (ratio of intimal area to medial area, mean ± SE): 1.322 ± 0.060

## FGF: acidic FGF (Calbiochem) loaded with endotoxin-free heparin as a stabilizer
[1]
  Intima to media ratio (ratio of intimal area to medial area, mean ± SE): 1.634 ± 0.051

## TGFβ1: transforming growth factor β1 (Oncogene Research)
[1]
  Intima to media ratio (ratio of intimal area to medial area, mean ± SE): 1.803 ± 0.053

B1: Fas ligand: pro-apoptotic factor, death domain receptor ligand (Oncogene Research) (protein, UniProt P48023 130-281, looked up)
Tumor necrosis factor ligand …: QIGHPSPPPEKKELRKVAHLTGKSNSRSMPLEWEDTYGIVLLSGVKYKKGGLVINETGLYFVYSKVYFRGQSCNNLPLSHKVYMRNSKYPQDLVMMEGKMMSYCTTGQMWARSSYLGAVFNLTSADHLYVNVSELSLVNFEESQTFFGLYKL
[1]
  Intima to media ratio (ratio of intimal area to medial area, mean ± SE): 1.356 ± 0.053
